In patent EP0461827B1, “Hair restorer” (KABUSHIKI KAISHA HAYASHIBARA SEIBUTSU KAGAKU KENKYUJO, priority 1990, dated 1991):
Blank lines part the entries; values can stand above or below the compound they belong to.

How the values were obtained:
[1] = tested on: volunteers with alopecias; test: 3-month clinical test of a hair restorer lotion in volunteers with alopecias; format: in vivo, human; settings: for Therapeutic efficacy (Number of volunteers) Recovery / Therapeutic efficacy (Number of volunteers) Moderate recovery / Therapeutic efficacy (Number of volunteers) Not effected / Therapeutic efficacy (Number of volunteers) Unfavorable: 3-month, lotion with 1.0 part of ingredient, 3 times a day; for Therapeutic efficacy (Number of volunteers) Recovery: hair newly regenerated, apparently free from alopecia; for Therapeutic efficacy (Number of volunteers) Moderate recovery: moderate hair regeneration, no recurrence of alopecia; for Therapeutic efficacy (Number of volunteers) Not effected: no regeneration of hair; for Therapeutic efficacy (Number of volunteers) Unfavorable: side effect or acceleration of alopecia found; for cure rate (%): percentage of volunteers with recovery and moderate recovery against total number of each group
Excerpt: Based on the results in Experiment 1, 20 randomly chosen volunteers with alopecias (10 men and 10 women) as the recipient received 3-month clinical test. The volunteers were 15-66 years old.
The symptom of the volunteers, who had received a pharmacotherapy or physiotherapy at a department of dermatology, were the male alopecia such as senile alopecia and alopecia prematura, and alopecia areata such as multiple alopecia areata and malignant alopecia areata.
Since the symptom of the volunteers with a slight alopecia areata may be spontaneously recovered, the volunteers with a relatively small alopecic site and those with the atrophia cutis or atrophic pores which were not clinically observed were excluded in this Experiment.
The procedure of therapeutic treatment used in this Experiment is carried out according to conventional procedure:
Forty-five parts of ethanol, 2 parts of glycerine, 55 parts of refined water, and 1.0 part of 2-O-α-D-glucosyl-L-ascorbic acid or α-glucosyl bioflavonoid prepared by the method in Example of Preparation 2, 4, 6 or 8, were mixed, and the mixture was adjusted to pH 6.7 by the addition of 6N sodium hydroxide to obtain a hair restorer for external application in lotion form. When the volunteers received a physical examination, their affected sites were applied a thin coat of the hair restorer, massaged and exposed to an artificial sunlight. Furthermore, the volunteers were instructed to apply the hair restorer to the affected sites 3 times a day at home.
As control, a hair restorer for external application containing intact L-ascorbic acid or bioflavonoid in place of 2-O-α-D-glucosyl-L-ascorbic acid or α-glucosyl bioflavonoid in the above hair restorer was used.

[2] = tested on: rabbits; test: Hair regeneration on depilated dorsum of rabbits, lotion applied once daily; format: in vivo; settings: 1% in 50% aqueous ethanol with 2% propyleneglycol, pH 6.7, 1ml once every day, difference to untreated area; for Mean remainder of hair length (mm) 10th (day): 10th day after application; for Mean remainder of hair length (mm) 20th (day): 20th day after application; for Mean remainder of hair length (mm) 30th (day): 30th day after application
Description: Either of an α-glycosyl-L-ascorbic acid or an α-glycosyl bioflavonoid prepared by the method in Example of Preparation 1-8 was dissolved to give a concentration of 1% in a 50% aqueous ethanol solution containing 2% propyleneglycol, and the mixture was adjusted to pH 6.7 by the addition of 6N sodium hydroxide to obtain a solution in hair lotion form. As control, a solution in hair lotion form was prepared similarly as above, except that α-glycosyl-L-ascorbic acid and α-glycosyl bioflavonoid were replaced with either of intact L-ascorbic acid, bioflavonoid and refined water.
The dorsum surgace of rabbits was sectioned into four areas, 5cm^2 each, i.e. two areas near at head side and two areas near at tail side which were respectively bisymmetrical about the vertebral columns of the rabbits, and the four areas were depilated by applying thereto silver cream (a depilatory agent) and subjecting them to brief standing. The depilated areas were first sufficiently washed with water, then the depilated areas of the right area near at head side, the left area near at head side, and the right area near at tail side were respectively applied once every day by using a paintbrush with 1ml of the test solution, 1ml of the control solution containing refined water, and 1ml of the control solution containing L-ascorbic acid or bioflavonoid. Furthermore, the left area near at tail side was untreated.
The application of each solution was started on the second day after the depilation, and the newly regenerated hairs were depilated to count on the 10th, 20th and 30th days after the application. The length of 10 coarse hairs regenerated in each area was measured with a micromanipulator, and expressed by the mean remainder of hair length (mm) between the hair length in the area which had been applied with a sample solution and that in the area which had been untreated.
In addition, it has been known that the growth rates of hairs in the bisymmetrical dorsum surfaces about the vertebral column of a rabbit is in the same level, and those in both sexes are also in the same level.

[3] = tested on: α-glucosidase which had been extracted from a pig liver

Compound: C[C@@H]1O[C@@H](O[C@H]2[C@H](Oc3cc(O)c4c(c3)O[C@H](c3ccc(O)cc3)CC4=O)O[C@H](CO)[C@@H](O)[C@@H]2O)[C@H](O)[C@H](O)[C@H]1O [Naringin, reference compound]
Therapeutic efficacy (Number of volunteers) Recovery [1]: 0 Number of volunteers | Therapeutic efficacy (Number of volunteers) Moderate recovery [1]: 5 Number of volunteers | Therapeutic efficacy (Number of volunteers) Not effected [1]: 10 Number of volunteers | Therapeutic efficacy (Number of volunteers) Unfavorable [1]: 5 Number of volunteers | Mean remainder of hair length (mm) 10th (day) [2]: 0.1 mm | Mean remainder of hair length (mm) 20th (day) [2]: 0.5 mm | Mean remainder of hair length (mm) 30th (day) [2]: -0.2 mm

Compound: COc1ccc(C2CC(=O)c3c(O)cc(OC4OC(COC5OC(C)C(O)C(O)C5O)C(O)C(O)C4O)cc3O2)cc1O (stereo not drawn) [Hesperidin, reference compound]
Therapeutic efficacy (Number of volunteers) Recovery [1]: 0 Number of volunteers | Therapeutic efficacy (Number of volunteers) Moderate recovery [1]: 3 Number of volunteers | Therapeutic efficacy (Number of volunteers) Not effected [1]: 12 Number of volunteers | Therapeutic efficacy (Number of volunteers) Unfavorable [1]: 5 Number of volunteers | Mean remainder of hair length (mm) 10th (day) [2]: 0.1 mm | Mean remainder of hair length (mm) 20th (day) [2]: 0.5 mm | Mean remainder of hair length (mm) 30th (day) [2]: 0.2 mm

hydrolysis by α-glucosidase [3]: hydrolyzed into rutin and D-glucose
Compound: α-Glucosyl rutin
Therapeutic efficacy (Number of volunteers) Recovery [1]: 6 Number of volunteers | Therapeutic efficacy (Number of volunteers) Moderate recovery [1]: 12 Number of volunteers | Therapeutic efficacy (Number of volunteers) Not effected [1]: 2 Number of volunteers | Therapeutic efficacy (Number of volunteers) Unfavorable [1]: 0 Number of volunteers | cure rate (%) [1]: 90% | Mean remainder of hair length (mm) 10th (day) [2]: 2.5 mm | Mean remainder of hair length (mm) 20th (day) [2]: 8.2 mm | Mean remainder of hair length (mm) 30th (day) [2]: 7.6 mm

Compound: O=C1O[C@H]([C@@H](O)CO)C(O)=C1O[C@H]1O[C@H](CO)[C@@H](O)[C@H](O)[C@H]1O [2-O-α-D-Glucosyl-L-ascorbic acid]
Therapeutic efficacy (Number of volunteers) Recovery [1]: 6 Number of volunteers | Therapeutic efficacy (Number of volunteers) Moderate recovery [1]: 10 Number of volunteers | Therapeutic efficacy (Number of volunteers) Not effected [1]: 4 Number of volunteers | Therapeutic efficacy (Number of volunteers) Unfavorable [1]: 0 Number of volunteers | cure rate (%) [1]: 80% | Mean remainder of hair length (mm) 10th (day) [2]: 2.4 mm | Mean remainder of hair length (mm) 20th (day) [2]: 6.8 mm | Mean remainder of hair length (mm) 30th (day) [2]: 6.9 mm

Compound: α-Glucosyl naringin
Therapeutic efficacy (Number of volunteers) Recovery [1]: 4 Number of volunteers | Therapeutic efficacy (Number of volunteers) Moderate recovery [1]: 9 Number of volunteers | Therapeutic efficacy (Number of volunteers) Not effected [1]: 7 Number of volunteers | Therapeutic efficacy (Number of volunteers) Unfavorable [1]: 0 Number of volunteers | cure rate (%) [1]: 65% | Mean remainder of hair length (mm) 10th (day) [2]: 2.1 mm | Mean remainder of hair length (mm) 20th (day) [2]: 6.6 mm | Mean remainder of hair length (mm) 30th (day) [2]: 6.3 mm | hydrolysis by α-glucosidase [3]: hydrolyzed the α-glucosyl naringin into naringin and D-glucose

hydrolysis by α-glucosidase [3]: formed hesperidin and D-glucose
Compound: α-Glucosyl hesperidin
Therapeutic efficacy (Number of volunteers) Recovery [1]: 4 Number of volunteers | Therapeutic efficacy (Number of volunteers) Moderate recovery [1]: 11 Number of volunteers | Therapeutic efficacy (Number of volunteers) Not effected [1]: 5 Number of volunteers | Therapeutic efficacy (Number of volunteers) Unfavorable [1]: 0 Number of volunteers | cure rate (%) [1]: 75% | Mean remainder of hair length (mm) 10th (day) [2]: 2.3 mm | Mean remainder of hair length (mm) 20th (day) [2]: 7.4 mm | Mean remainder of hair length (mm) 30th (day) [2]: 6.7 mm

Compound: C[C@@H]1O[C@@H](OC[C@H]2O[C@@H](Oc3c(-c4ccc(O)c(O)c4)oc4cc(O)cc(O)c4c3=O)[C@H](O)[C@@H](O)[C@@H]2O)[C@H](O)[C@H](O)[C@H]1O [Rutin, 3-[[6-O-(6-deoxy-α-L-mannopyranosyl)-β-D-glucopyranosyl)]oxy-2-(3,4-dihydroxyphenyl)-5,7-dihydroxy-4H-1-benzopyran-4-one, reference compound]
Therapeutic efficacy (Number of volunteers) Recovery [1]: 0 Number of volunteers | Therapeutic efficacy (Number of volunteers) Moderate recovery [1]: 4 Number of volunteers | Therapeutic efficacy (Number of volunteers) Not effected [1]: 13 Number of volunteers | Therapeutic efficacy (Number of volunteers) Unfavorable [1]: 3 Number of volunteers | Mean remainder of hair length (mm) 10th (day) [2]: 0.3 mm | Mean remainder of hair length (mm) 20th (day) [2]: 0.9 mm | Mean remainder of hair length (mm) 30th (day) [2]: 0.5 mm

Compound: O=C1O[C@H]([C@@H](O)CO)C(O)=C1O [L-Ascorbic acid, L-ascorbic acid, reference compound]
Therapeutic efficacy (Number of volunteers) Recovery [1]: 0 Number of volunteers | Therapeutic efficacy (Number of volunteers) Moderate recovery [1]: 3 Number of volunteers | Therapeutic efficacy (Number of volunteers) Not effected [1]: 11 Number of volunteers | Therapeutic efficacy (Number of volunteers) Unfavorable [1]: 6 Number of volunteers | Mean remainder of hair length (mm) 10th (day) [2]: 0.1 mm | Mean remainder of hair length (mm) 20th (day) [2]: -0.2 mm | Mean remainder of hair length (mm) 30th (day) [2]: 0.5 mm
